# Test results reported in ChEMBL document CHEMBL3526034 (Drug Metab Dispos, 2013).
# Columns and labels:
# CYP2B6 = CYP2B6 (Homo sapiens, UniProt P20813); experiment: Inhibition of CYP2B6 in human liver microsomes using bupropion as substrate at 100 uM preincubated for 20 mins with substrate prior to initiation of reaction with NADPH by HPLC analysis; assay type: ADME; settings: probe bupropion
# MDR1 (P-gp, ABCB1) [1] = target: T1, MDR1 (P-gp, ABCB1) (Homo sapiens, UniProt P08183); experiment: Activity at human MDR1 expressed in MDCK2 cells assessed as apical to basolateral mass balance at 3 uM by liquid scintillation counting analysis in presence of 3 uM P-gp and BCRP inhibitor GF120918; assay type: ADME, cell-based, MDCK-II; settings: with GF120918 (P-gp and BCRP inhibitor), read-out: Activity
# Hepatocyte = experiment: Induction of CYP3A4 mRNA expression in human hepatocytes at 1 to 40 uM after 48 hrs by real time PCR analysis; assay type: ADME, cell-based
# Cytochrome P450 1A2 = target: T2, Cytochrome P450 1A2 (Homo sapiens, UniProt P05177); experiment: Inhibition of CYP1A2 in human liver microsomes using phenacetin as substrate preincubated for 20 mins with substrate prior to initiation of reaction with NADPH by HPLC analysis; assay type: ADME
# T2 sequence (P05177 whole entry): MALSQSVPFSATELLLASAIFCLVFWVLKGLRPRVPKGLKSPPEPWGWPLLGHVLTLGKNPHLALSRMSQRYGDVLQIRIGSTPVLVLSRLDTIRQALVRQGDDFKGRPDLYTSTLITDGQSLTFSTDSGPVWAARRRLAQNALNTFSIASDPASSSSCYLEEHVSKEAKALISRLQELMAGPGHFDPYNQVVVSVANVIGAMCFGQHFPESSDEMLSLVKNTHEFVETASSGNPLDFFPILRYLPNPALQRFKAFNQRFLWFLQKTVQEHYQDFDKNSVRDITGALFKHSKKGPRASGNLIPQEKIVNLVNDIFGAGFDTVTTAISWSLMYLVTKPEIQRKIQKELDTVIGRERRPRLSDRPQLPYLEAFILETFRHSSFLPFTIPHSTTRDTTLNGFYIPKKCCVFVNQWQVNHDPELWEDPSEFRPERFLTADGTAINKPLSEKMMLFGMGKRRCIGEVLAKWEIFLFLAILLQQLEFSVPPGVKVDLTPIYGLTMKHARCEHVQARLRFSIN
# [2] = target: Solute carrier organic anion transporter family member 1B1 (Homo sapiens, UniProt Q9Y6L6); experiment: Inhibition of human OATP1B1 expressed in CHO cells using [3H]estradiol 17beta-D-glucuronide as substrate by liquid scintillation counting analysis; assay type: ADME, cell-based
# Cytochrome P450 2C8 = target: T3, Cytochrome P450 2C8 (Homo sapiens, UniProt P10632); experiment: Inhibition of CYP2C8 in human liver microsomes using rosiglitazone as substrate preincubated for 20 mins with substrate prior to initiation of reaction with NADPH by HPLC analysis; assay type: ADME
# T3 sequence (P10632 whole entry): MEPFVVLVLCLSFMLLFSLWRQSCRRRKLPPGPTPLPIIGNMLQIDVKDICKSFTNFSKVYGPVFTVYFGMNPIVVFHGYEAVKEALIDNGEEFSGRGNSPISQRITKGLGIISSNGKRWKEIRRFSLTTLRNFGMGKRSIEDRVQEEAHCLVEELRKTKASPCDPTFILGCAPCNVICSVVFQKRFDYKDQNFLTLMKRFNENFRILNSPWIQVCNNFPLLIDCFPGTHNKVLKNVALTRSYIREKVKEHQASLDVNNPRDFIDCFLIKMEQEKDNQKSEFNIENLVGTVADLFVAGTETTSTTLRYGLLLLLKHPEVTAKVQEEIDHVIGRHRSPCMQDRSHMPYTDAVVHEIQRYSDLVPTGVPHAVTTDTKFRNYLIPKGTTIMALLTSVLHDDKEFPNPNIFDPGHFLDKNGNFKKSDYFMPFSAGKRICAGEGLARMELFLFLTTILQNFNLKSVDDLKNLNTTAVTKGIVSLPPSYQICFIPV
# MDR1 (P-gp, ABCB1) [3] = target: T1, MDR1 (P-gp, ABCB1); experiment: Activity at human MDR1 expressed in MDCK2 cells assessed as basolateral to apical mass balance at 3 uM by liquid scintillation counting analysis; assay type: ADME, cell-based, MDCK-II; settings: MDCK-MDR1, read-out: Activity
# [4] = target: UDP-glucuronosyltransferase 1A3 (Homo sapiens, UniProt P35503); experiment: Drug metabolism assessed as UDPGA-fortified human recombinant UGT1A3-mediated DTG glucuronide metabolite ((2S,3S,4S,5R,6S)-6-((4R,12aS)-9-(2,4-difluorobenzylcarbamoyl)-4-methyl-6,8-dioxo-3,4,6,8,12,12a-hexahydro-2H-[1,3]oxazino[3,2-d]pyrido[1,2-a]pyrazin-7-yloxy)-3,4,5-trihydroxytetrahydro-2H-pyran-2-carboxylic acid) formation at 16 uM after 120 mins by radio-HPLC analysis; assay type: ADME; settings: recombinant enzyme
# [5] = target: T4, UDP-glucuronosyltransferase 1A1 (Homo sapiens, UniProt P22309); experiment: Inhibition of human recombinant UGT1A1 expressed in supersomes assessed as scopoletin glucuronidation by fluorescence analysis; assay type: ADME
# T4 sequence (P22309 whole entry): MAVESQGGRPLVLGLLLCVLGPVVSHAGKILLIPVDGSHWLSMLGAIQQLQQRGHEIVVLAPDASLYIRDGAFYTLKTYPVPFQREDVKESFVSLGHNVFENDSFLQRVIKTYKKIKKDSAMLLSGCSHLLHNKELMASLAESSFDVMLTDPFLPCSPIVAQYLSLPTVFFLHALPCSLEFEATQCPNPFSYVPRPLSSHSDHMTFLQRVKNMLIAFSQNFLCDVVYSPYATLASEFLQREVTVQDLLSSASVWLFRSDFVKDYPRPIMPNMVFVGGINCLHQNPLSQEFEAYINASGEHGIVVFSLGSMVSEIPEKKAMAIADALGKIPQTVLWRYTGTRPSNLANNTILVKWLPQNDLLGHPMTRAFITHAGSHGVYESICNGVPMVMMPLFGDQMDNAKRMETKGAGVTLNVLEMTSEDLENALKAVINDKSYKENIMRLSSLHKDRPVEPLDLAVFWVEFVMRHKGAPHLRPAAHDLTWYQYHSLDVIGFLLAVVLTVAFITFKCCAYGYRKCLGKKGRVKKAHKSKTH
# T1 sequence (P08183 whole entry): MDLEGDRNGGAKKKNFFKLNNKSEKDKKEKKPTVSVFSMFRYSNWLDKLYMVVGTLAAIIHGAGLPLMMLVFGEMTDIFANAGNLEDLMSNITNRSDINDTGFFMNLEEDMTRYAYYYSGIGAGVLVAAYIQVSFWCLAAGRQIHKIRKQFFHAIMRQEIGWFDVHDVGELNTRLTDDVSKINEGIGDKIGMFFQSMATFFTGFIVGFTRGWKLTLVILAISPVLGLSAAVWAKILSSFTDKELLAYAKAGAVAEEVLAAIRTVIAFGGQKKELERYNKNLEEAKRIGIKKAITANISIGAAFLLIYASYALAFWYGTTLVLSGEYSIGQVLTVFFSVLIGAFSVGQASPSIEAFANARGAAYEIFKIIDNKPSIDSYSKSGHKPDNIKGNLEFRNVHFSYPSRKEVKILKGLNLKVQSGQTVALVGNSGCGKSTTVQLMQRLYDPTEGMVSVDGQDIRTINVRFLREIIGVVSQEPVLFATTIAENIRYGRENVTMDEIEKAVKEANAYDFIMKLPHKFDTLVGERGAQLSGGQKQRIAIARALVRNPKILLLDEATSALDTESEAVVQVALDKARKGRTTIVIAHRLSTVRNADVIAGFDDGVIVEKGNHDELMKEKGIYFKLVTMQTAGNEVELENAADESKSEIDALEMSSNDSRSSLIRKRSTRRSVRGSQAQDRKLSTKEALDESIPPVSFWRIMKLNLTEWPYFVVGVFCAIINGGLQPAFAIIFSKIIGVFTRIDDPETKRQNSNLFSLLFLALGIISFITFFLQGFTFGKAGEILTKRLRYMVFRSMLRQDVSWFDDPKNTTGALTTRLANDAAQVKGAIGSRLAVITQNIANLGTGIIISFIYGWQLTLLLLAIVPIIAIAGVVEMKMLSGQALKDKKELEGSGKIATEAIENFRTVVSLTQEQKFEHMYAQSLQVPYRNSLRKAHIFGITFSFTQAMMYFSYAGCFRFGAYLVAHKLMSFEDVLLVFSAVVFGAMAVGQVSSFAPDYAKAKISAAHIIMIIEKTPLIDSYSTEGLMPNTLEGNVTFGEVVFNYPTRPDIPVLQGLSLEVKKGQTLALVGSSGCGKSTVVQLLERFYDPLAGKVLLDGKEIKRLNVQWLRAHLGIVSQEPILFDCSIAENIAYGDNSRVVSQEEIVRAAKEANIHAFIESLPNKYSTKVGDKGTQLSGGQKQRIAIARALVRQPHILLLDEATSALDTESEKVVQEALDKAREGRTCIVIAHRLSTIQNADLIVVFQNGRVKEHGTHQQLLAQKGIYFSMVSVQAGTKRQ
# Chain of UDP-glucuronosyltransferase 1A3 (P35503 whole entry): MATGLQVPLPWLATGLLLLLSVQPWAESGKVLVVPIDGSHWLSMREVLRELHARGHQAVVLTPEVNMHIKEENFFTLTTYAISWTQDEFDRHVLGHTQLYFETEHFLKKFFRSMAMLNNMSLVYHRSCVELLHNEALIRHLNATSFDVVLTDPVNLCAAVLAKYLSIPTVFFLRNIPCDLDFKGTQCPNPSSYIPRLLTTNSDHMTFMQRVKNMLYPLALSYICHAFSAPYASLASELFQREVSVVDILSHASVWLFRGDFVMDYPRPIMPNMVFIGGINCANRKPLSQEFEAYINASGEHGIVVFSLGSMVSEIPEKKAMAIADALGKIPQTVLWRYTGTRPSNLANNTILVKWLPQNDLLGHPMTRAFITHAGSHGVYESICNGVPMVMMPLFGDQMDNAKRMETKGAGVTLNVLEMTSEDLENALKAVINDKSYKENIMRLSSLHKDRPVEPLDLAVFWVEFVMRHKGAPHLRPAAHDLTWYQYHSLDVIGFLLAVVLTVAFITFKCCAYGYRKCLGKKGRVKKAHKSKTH
# Chain of Solute carrier organic anion transporter family member 1B1 (Q9Y6L6 whole entry): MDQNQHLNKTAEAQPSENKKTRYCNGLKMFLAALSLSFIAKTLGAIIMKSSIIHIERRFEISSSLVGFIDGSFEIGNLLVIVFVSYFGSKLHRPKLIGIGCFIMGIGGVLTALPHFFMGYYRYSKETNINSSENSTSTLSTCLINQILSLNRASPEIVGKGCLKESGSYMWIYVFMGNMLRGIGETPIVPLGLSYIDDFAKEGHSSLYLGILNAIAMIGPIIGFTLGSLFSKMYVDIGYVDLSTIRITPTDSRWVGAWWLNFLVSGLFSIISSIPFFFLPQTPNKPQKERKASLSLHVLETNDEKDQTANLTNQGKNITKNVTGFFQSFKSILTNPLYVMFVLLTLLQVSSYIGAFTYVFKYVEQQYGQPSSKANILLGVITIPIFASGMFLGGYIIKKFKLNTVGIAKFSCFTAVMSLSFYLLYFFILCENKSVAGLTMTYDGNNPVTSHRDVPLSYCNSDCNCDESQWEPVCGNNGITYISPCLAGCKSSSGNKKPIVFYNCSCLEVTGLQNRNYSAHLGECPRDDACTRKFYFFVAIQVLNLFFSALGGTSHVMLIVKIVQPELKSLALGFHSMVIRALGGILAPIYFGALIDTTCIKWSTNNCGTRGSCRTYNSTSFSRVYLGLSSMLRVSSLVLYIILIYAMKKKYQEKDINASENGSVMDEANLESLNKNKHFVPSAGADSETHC
# Chain of CYP2B6 (P20813 whole entry): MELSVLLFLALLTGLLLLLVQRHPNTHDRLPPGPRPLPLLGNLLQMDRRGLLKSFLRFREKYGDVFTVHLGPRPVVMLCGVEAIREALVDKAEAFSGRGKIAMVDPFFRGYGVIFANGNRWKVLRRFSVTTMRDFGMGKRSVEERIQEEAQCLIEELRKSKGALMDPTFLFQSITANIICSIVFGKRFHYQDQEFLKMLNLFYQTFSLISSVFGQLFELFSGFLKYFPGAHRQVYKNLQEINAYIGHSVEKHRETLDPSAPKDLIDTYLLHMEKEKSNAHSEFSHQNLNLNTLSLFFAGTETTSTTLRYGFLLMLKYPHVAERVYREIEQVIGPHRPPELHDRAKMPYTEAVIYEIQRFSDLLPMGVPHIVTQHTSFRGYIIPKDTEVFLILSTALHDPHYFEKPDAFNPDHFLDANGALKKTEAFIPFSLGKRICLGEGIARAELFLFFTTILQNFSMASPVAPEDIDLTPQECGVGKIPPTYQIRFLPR
smiles,measurement,setting,value
C[C@@H]1CCO[C@H]2Cn3cc(C(=O)NCc4ccc(F)cc4F)c(=O)c(O)c3C(=O)N12 [DOLUTEGRAVIR],inhibition at 100 µM,CYP2B6,20%
same,recovery at 3 µM,"MDR1 (P-gp, ABCB1) [1]",84%
same,Activity,Hepatocyte,Toxic
same,IC50,Cytochrome P450 1A2,> 100 µM
same,IC50,[2],> 100 µM
same,IC50,Cytochrome P450 2C8,> 100 µM
same,recovery at 3 µM,"MDR1 (P-gp, ABCB1) [3]",84%
same,Drug metabolism,[4],metabolite_detected
same,IC50,[5],> 100 µM
